Reference: patent publication US20180057507A1, “INHIBITORS OF DUAL LEUCINE ZIPPER (DLK) KINASE FOR THE TREATMENT OF DISEASE” (Board of Regents, The University of Texas System, priority 2016, published 2018)

What was measured:
human DLK [1] = molecular target: T1, human DLK (Homo sapiens, UniProt Q12852); experiment: DLK Kd Determinations (KINOMEscan KdELECT, DiscoveRx); set-up: full length of human DLK (amino acids 1-859); host or cells: transiently transfected HEK293 cells; unpurified extract; settings: fusion protein of full length human DLK (amino acids 1-859) and NFkB DNA binding domain; qPCR readout; duplicate
T1 sequence (Q12852 1-859): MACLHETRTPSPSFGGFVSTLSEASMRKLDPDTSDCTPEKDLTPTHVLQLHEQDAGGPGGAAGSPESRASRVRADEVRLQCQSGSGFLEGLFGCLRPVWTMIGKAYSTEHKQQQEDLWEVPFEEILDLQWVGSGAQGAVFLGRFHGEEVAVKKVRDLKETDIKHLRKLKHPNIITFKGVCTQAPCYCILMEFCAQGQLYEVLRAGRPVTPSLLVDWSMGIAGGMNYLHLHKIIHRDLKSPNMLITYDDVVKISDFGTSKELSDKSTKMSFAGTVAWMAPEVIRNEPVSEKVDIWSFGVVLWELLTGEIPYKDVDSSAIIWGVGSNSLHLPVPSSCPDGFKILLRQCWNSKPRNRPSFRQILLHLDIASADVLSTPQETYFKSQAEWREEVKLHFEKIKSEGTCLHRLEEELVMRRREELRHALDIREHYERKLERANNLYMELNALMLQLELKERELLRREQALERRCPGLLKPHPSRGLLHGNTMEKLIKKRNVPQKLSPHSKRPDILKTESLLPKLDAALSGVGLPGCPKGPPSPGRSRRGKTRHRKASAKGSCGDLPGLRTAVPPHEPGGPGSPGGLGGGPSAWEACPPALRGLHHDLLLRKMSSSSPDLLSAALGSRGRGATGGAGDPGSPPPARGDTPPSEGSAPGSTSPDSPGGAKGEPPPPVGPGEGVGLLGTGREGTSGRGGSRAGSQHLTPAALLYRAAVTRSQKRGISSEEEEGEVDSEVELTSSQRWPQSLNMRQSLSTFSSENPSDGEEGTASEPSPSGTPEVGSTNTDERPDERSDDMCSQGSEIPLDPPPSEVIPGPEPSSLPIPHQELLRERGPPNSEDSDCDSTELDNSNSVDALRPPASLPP
How it was run: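 Competition binding of full-length human DLK (aa 1-859)-NFkB DBD fusion, DNA-tagged, from HEK293 extracts against an immobilized ligand; 1 h at room temperature, 0.9% DMSO. Bead-bound kinase was quantified by qPCR. Kd came from an 11-point 3-fold series (top 30,000 nM), in duplicate, with Hill slope fixed at −1.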

human DLK [2] = molecular target: T1, human DLK; experiment: Phospho-cJun Cellular Assay; format: cell-based; set-up: expressed in transfected cells; settings: HEK293 cells stably transfected with Dox-inducible human DLK; p-cJun (Ser63); 5 h compound incubation
Procedure: Phospho-cJun Cellular Assay
HEK293 cells stably transfected with a Dox-inducible human DLK were plated into a 384-well plate in 20 μl (40,000 cells/well) of DMEM medium (without phenol red) containing 10% fetal bovine serum, 1.5 μg/ml doxycycline and 1 μg/ml puromycin. The cells as negative control were grown in the absence of doxycycline. The plate was incubated at 37° C., 5% CO2 for 20 h, before DMSO (control) or compounds diluted in medium were added. The cells were incubated at 37° C. for an additional 5 h, followed by lysis and the addition detection antibodies from p-cJun (Ser63) cellular assay kit (Cisbio) per manufacturer protocol. The standard dose response curves were fitted by Genedata Screener software using the variable-slope model: Signal=Signalnegative control+(SignalDMSO control−Signalnegative control)/(1+(IC50/Dose)̂Hill slope). Only signal and dose in the equation were treated as known values.

CC(C)c1nc(-c2cnc(N)c(C(F)(F)F)c2)cn1[C@H]1[C@@H]2CC(N3CCCOCC3)C[C@@H]21 (stereo partly shown) [Example 142, 5-(1-(3-(1,4-oxazepan-4-yl)bicyclo[3.1.0]hexan-6-yl)-2-isopropyl-1H-imidazol-4-yl)-3-(trifluoromethyl)pyridin-2-amine]
Kd (human DLK [1]): 0.0094 µM | IC50 (human DLK [2]): 0.934 µM

Nc1ncc(-c2cn([C@H]3[C@@H]4CC(N5CCOCC5)C[C@@H]43)c(CC3CC3)n2)cc1C(F)(F)F (single isomer, unassigned) [Example 138b, 5-(2-(cyclopropylmethyl)-1-(3-morpholinobicyclo[3.1.0]hexan-6-yl)-1H-imidazol-4-yl)-3-(trifluoromethyl)pyridin-2-amine]
Kd (human DLK [1]): 0.034 µM | IC50 (human DLK [2]): 1.05 µM

CC(C)c1nc(-c2cnc(N)c(OC(F)(F)F)c2)cn1[C@H]1[C@@H]2CC(N3CCOC[C@@H]3C)C[C@@H]21 (single isomer, unassigned) [Example 157b]
Kd (human DLK [1]): 0.022 µM | IC50 (human DLK [2]): 0.827 µM

CC(C)Cc1nc(-c2cnc(N)c(OC(F)(F)F)c2)cn1[C@H]1[C@@H]2CC(N3CCN(CCF)CC3)C[C@@H]21 (single isomer, unassigned) [Example 159a, 5-(1-(3-(4-(2-fluoroethyl)piperazin-1-yl)bicyclo[3.1.0]hexan-6-yl)-2-isobutyl-1H-imidazol-4-yl)-3-(trifluoromethoxy)pyridin-2-amine]
Kd (human DLK [1]): 0.033 µM | IC50 (human DLK [2]): 0.589 µM

Nc1ncc(-c2cn([C@H]3[C@@H]4CN(C5COC5)C[C@@H]43)c(C3CC3)n2)cc1C(F)(F)F [Example 73, 5-(2-cyclopropyl-1-((1R,5S,6s)-3-(oxetan-3-yl)-3-azabicyclo[3.1.0]hexan-6-yl)-1H-imidazol-4-yl)-3-(trifluoromethyl)pyridin-2-amine]
Kd (human DLK [1]): 0.056 µM | IC50 (human DLK [2]): 1.2 µM

CC(C)c1nc(-c2cnc(N)c(C(F)(F)F)c2)cn1C1CC1 [Example 6, 5-[1-cyclopropyl-2-(propan-2-yl)-1H-imidazol-4-yl]-3-(trifluoromethyl)pyridin-2-amine]
Kd (human DLK [1]): 0.13 µM | IC50 (human DLK [2]): 3.62 µM

Nc1ncc(-c2cn([C@H]3[C@@H]4CN(C5CCOCC5)C[C@@H]43)c(C3CC3)n2)cc1OC(F)F [Example 105, 5-(2-cyclopropyl-1-((1R,5S,6s)-3-(tetrahydro-2H-pyran-4-yl)-3-azabicyclo[3.1.0]hexan-6-yl)-1H-imidazol-4-yl)-3-(difluoromethoxy)pyridin-2-amine]
Kd (human DLK [1]): 0.079 µM | IC50 (human DLK [2]): 1.9 µM

CC(C)c1nc(-c2cnc(N)c(C(F)(F)F)c2)cn1C1CC2(C1)CN(C1COC1)C2 [Example 31, 5-(2-isopropyl-1-(2-(oxetan-3-yl)-2-azaspiro[3.3]heptan-6-yl)-1H-imidazol-4-yl)-3-(trifluoromethyl)pyridin-2-amine]
Kd (human DLK [1]): 0.082 µM | IC50 (human DLK [2]): 2.15 µM

Nc1ncc(-c2cn([C@H]3[C@@H]4CN(CCF)C[C@@H]43)c(C3CC3)n2)cc1C(F)(F)F [Example 95, 5-(2-cyclopropyl-1-((1R,5S,6s)-3-(2-fluoroethyl)-3-azabicyclo[3.1.0]hexan-6-yl)-1H-imidazol-4-yl)-3-(trifluoromethyl)pyridin-2-amine]
Kd (human DLK [1]): 0.0123 µM | IC50 (human DLK [2]): 1.2 µM

Nc1ncc(-c2cn([C@H]3[C@@H]4CC(N5CCN(CCF)CC5)C[C@@H]43)c(C3CC3)n2)cc1OC(F)(F)F (single isomer, unassigned) [Example 154a, 5-(2-cyclopropyl-1-(3-(4-(2-fluoroethyl)piperazin-1-yl)bicyclo[3.1.0]hexan-6-yl)-1H-imidazol-4-yl)-3-(trifluoromethoxy)pyridin-2-amine]
Kd (human DLK [1]): 0.028 µM | IC50 (human DLK [2]): 0.761 µM

CC(C)c1nc(-c2cnc(N)c(OC(F)(F)F)c2)cn1[C@H]1[C@@H]2CC(N3CCN(CCF)CC3)C[C@@H]21 (single isomer, unassigned) [Example 156a, 5-(1-(3-(4-(2-fluoroethyl)piperazin-1-yl)bicyclo[3.1.0]hexan-6-yl)-2-isopropyl-1H-imidazol-4-yl)-3-(trifluoromethoxy)pyridin-2-amine]
Kd (human DLK [1]): 0.03 µM | IC50 (human DLK [2]): 0.747 µM

CC1COCCN1C1C[C@@H]2[C@H](C1)[C@H]2n1cc(-c2cnc(N)c(OC(F)(F)F)c2)nc1C1CC1 (stereo partly shown) [Example 148, 5-(2-cyclopropyl-1-(3-(3-methylmorpholino)bicyclo[3.1.0]hexan-6-yl)-1H-imidazol-4-yl)-3-(trifluoromethoxy)pyridin-2-amine]
Kd (human DLK [1]): 0.022 µM | IC50 (human DLK [2]): 0.71 µM

CC(C)c1nc(-c2cnc(N)c(C(F)(F)F)c2)cn1[C@H]1[C@@H]2CC(N3CCN(C)CC3)C[C@@H]21 (stereo partly shown) [Example 132, 5-(2-isopropyl-1-(3-(4-methylpiperazin-1-yl)bicyclo[3.1.0]hexan-6-yl)-1H-imidazol-4-yl)-3-(trifluoromethyl)pyridin-2-amine]
Kd (human DLK [1]): 0.022 µM | IC50 (human DLK [2]): 0.909 µM

Nc1ncc(-c2cn([C@H]3[C@@H]4CN(CCF)C[C@@H]43)c(C3CC3)n2)cc1OC(F)(F)F [Example 69, 5-(2-cyclopropyl-1-((1R,5S,6s)-3-(2-fluoroethyl)-3-azabicyclo[3.1.0]hexan-6-yl)-1H-imidazol-4-yl)-3-(trifluoromethoxy)pyridin-2-amine]
Kd (human DLK [1]): 0.045 µM | IC50 (human DLK [2]): 2.44 µM

C[C@H]1COCCN1C1C[C@@H]2[C@H](C1)[C@H]2n1cc(-c2cnc(N)c(C(F)(F)F)c2)nc1C1CC1 (single isomer, unassigned) [Example 140a]
Kd (human DLK [1]): 0.032 µM | IC50 (human DLK [2]): 0.834 µM

Nc1ncc(-c2cn([C@H]3[C@@H]4CC(N5CCOCC5)C[C@@H]43)c(C3CC3)n2)cc1C(F)(F)F (single isomer, unassigned) [Example 128b, 5-(2-cyclopropyl-1-(3-morpholinobicyclo[3.1.0]hexan-6-yl)-1H-imidazol-4-yl)-3-(trifluoromethyl)pyridin-2-amine]
Kd (human DLK [1]): 0.022 µM | IC50 (human DLK [2]): 0.755 µM

Nc1ncc(-c2cn([C@H]3[C@@H]4CN(C5COC5)C[C@@H]43)c(CC3CC3)n2)cc1OC(F)(F)F [Example 92, 5-(2-(cyclopropylmethyl)-1-((1R,5S,6s)-3-(oxetan-3-yl)-3-azabicyclo[3.1.0]hexan-6-yl)-1H-imidazol-4-yl)-3-(trifluoromethoxy)pyridin-2-amine]
Kd (human DLK [1]): 0.055 µM | IC50 (human DLK [2]): 1.82 µM

CC(C)Cc1nc(-c2cnc(N)c(C(F)(F)F)c2)cn1[C@H]1[C@@H]2CN(CCF)C[C@@H]21 [Example 126, 5-(1-((1R,5S,6s)-3-(2-fluoroethyl)-3-azabicyclo[3.1.0]hexan-6-yl)-2-isobutyl-1H-imidazol-4-yl)-3-(trifluoromethyl)pyridin-2-amine]
Kd (human DLK [1]): 0.034 µM | IC50 (human DLK [2]): 0.823 µM

CC(C)c1nc(-c2cnc(N)c(C(F)(F)F)c2)cn1[C@H]1[C@@H]2CC(N3CCCOCC3)C[C@@H]21 (stereo partly shown) [Example 130, 5-(1-(3-(1,4-oxazepan-4-yl)bicyclo[3.1.0]hexan-6-yl)-2-isopropyl-1H-imidazol-4-yl)-3-(trifluoromethyl)pyridin-2-amine]
Kd (human DLK [1]): 0.025 µM | IC50 (human DLK [2]): 1.76 µM

Nc1ncc(-c2cn([C@H]3[C@@H]4CN(C5CCOCC5)C[C@@H]43)c(CC(F)(F)F)n2)cc1C(F)(F)F [Example 119, 5-(1-((1R,5S,6s)-3-(tetrahydro-2H-pyran-4-yl)-3-azabicyclo[3.1.0]hexan-6-yl)-2-(2,2,2-trifluoroethyl)-1H-imidazol-4-yl)-3-(trifluoromethyl)pyridin-2-amine]
Kd (human DLK [1]): 0.071 µM | IC50 (human DLK [2]): 1.85 µM
